# Measured values reported in patent EP4817614A1, “COMPOSITION AND METHOD FOR TREATING AUTOIMMUNE DISEASES” (GNT Pharma Co., Ltd., priority 2023, dated 2025).
# Columns and labels:
# [1] = test system: imiquimod (IMQ)-induced lupus model; experiment: imiquimod (IMQ)-induced lupus (SLE) mouse model; format: in vivo, Female BALB/C mice; settings: for spleen index (organ weight/body weight x 100%): Fig. 1b; for follicle diameter / number of splenic follicles: H&E stained spleen sections, Fig. 2b-2c; for anti-dsDNA titers: SLE mouse serum, ELISA (IgG specific), Fig. 3
# Method: The goal of this Example was to investigate the effects of compound 2 in the imiquimod (IMQ)-induced lupus model, which is widely used as one of the induced SLE models.
# Female BALB/C mice weighing 18-20 g were supplied by Saeron Bio Co., Ltd. (Korea) and acclimatized for 7 days. The animals were housed in separate cages with free access to laboratory feed and water. During the experiment, the animals were maintained at 23±3°C and 50±10% relative humidity with a 12-hour light-dark cycle. The animals were treated according to a protocol approved by the Animal Ethics Committee of GNT Pharmaceuticals. The mice were randomly divided into four groups: a normal group (n=6), a control SLE group (vehicle group, n=8), an IMQ+Compound 2 group (Compound 2 treatment group, n=4), and an IMQ+N-acetylcysteine group (NAC treatment group, n=8). All IMQ treatment groups were administered 5% imiquimod cream (Aldara Cream, Dong-A Pharmaceutical Co., Ltd.) topically to the right ear at a dose of 1.25 mg daily every other day for 4 weeks. Compound 2 (5 mg/kg, twice daily) was orally administered to the IMQ+Compound 2 group for 4 weeks, followed by concurrent IMQ treatment. N-acetyl Cysteine (150 mg/kg, once daily, adjusted to pH 7.5-8.0) was administered intraperitoneally to the IMQ+NAC group for 4 weeks along with IMQ treatment.
# Mice were anesthetized with pentobarbital at the end of the experiment. Blood was collected through cardiac blood sampling. Within 30 minutes of collection, serum was separated from whole blood using EDTA by centrifugation at 12,000 g for 10 minutes. The extracted spleen was weighed, then the tissue was heated to 60°C, washed with xylene, and immersed in ethanol at gradient concentrations. The sections were H&E stained (BBC Biochemical, Washington State Mount Vernon) and then imaging was performed under a microscope. Observation was conducted through five fields of view at 10x magnification, and the number of spleen alba pulps (follicles) was counted. In addition, the diameter of the spleen alba pulp was observed using a micrometer. The diameter of the alba pulp was measured vertically and horizontally, and the average was calculated. Using a commercially available enzyme-linked immunosorbent assay (ELISA) kit (LBIS Mouse anti-dsDNA ELISA, Fujifilm Wako Shibayagi Co., Ltd., Richmond, Virginia, USA) serum anti-dsDNA (IgG specific) concentration was analyzed.
# EAE mouse model = experiment: experimental autoimmune encephalomyelitis (EAE) mouse model; format: in vivo, female C57BL/6 mice
# Description: Multiple sclerosis (MS) is a neurological autoimmune disease in which the body's immune system attacks the cells of myelin, the protective sheath surrounding the […] of the brain and spinal cord. Until now, EAE has been well known as a preclinical model associated with multiple sclerosis. Therefore, an EAE mouse model was used to confirm the effects of compound 2 on autoimmune diseases.
# The EAE mouse model was induced in 6-week-old female C57BL/6 mice. Mice were divided into three groups: 6 mice were placed in the normal group, and 8 mice were placed in the control EAE group (vehicle group) and the EAE + Compound 2 group (Compound 2 treatment group), respectively. In the mice, 200 µg of oligodendrocyte glycoprotein peptide myelin oligodendrocyte glycoprotein 35-55 (MOG35-55, Prospecbio , Israel) emulsified in 400 µg of complete Freund's adjuvant (CFA, Sigma, USA) was inoculated. The emulsion was injected into both sides of each mouse. Subsequently, 200 ng of pertussis toxin (Sigma, USA) was injected intraperitoneally on days 0 and 2. Compound 2 was injected intraperitoneally at a dose of 3.3 mg/kg every 24 hours for 7 days starting on day 9. In the control EAE group, PBS was injected intraperitoneally. Clinical signs associated with EAE were monitored daily and rated on a scale of 0 to 5: Grade 0, no apparent clinical symptoms; Grade 0.5, partial tail paralysis; Grade 1, tail paralysis or waddling gait; Grade 1.5, partial tail paralysis and waddling gait; Grade 2, tail paralysis and waddling gait; Grade 2.5, partial quadriplegia; Grade 3, unilateral limb paralysis; Grade 3.5, unilateral paralysis and partial paralysis of the other limb; Grade 4, bilateral paralysis; Grade 4.5, coma; Grade 5, death.
# On day 25 after EAE induction, mice were euthanized by exposure to CO2, and spleens were extracted. RNA expression in the spleen was analyzed using Applied Biosystems™QuantStudio 5 qPCR system (Thermofisher, USA) with AMPIGENE qPCR Green Mix Hyrox (Thermofisher, USA), including […] forward and reverse primers (Bionics Korea) and SYBR green dye (Enzo Life Sciences, Farmingdale , NY, USA). The expression levels of each gene were standardized to glyceraldehyde 3-phosphate dehydrogenase (GAPDH) and compared to the expression levels of the normal or control EAE groups. To evaluate the effect of compound 2 on Treg, mouse splenocyte preparations were stained with the Treg detection kit (CD4/CD25/FoxP3) (Miltenyi Biotech, Germany) according to the manufacturer's instructions, and the Treg population was evaluated using flow cytometry. The data was analyzed using FlowJo™ 10.8.1 software.
# [2] = test system: imiquimod (IMQ)-induced psoriasis model; experiment: imiquimod (IMQ)-induced psoriasis mouse model; format: in vivo, Male BALB/C mice
# Description: The goal of this Example was to investigate the effect of compound 2 in the imiquimod (IMQ)-induced psoriasis model, which is widely used as one of the induced psoriasis models.
# For the experiment, psoriasis was induced using imiquimod (IMQ). The IMQ-induced psoriasis mouse model is one of the most widely used models for studying psoriasis. IMQ is a Toll-like receptor-7/8 (TLR-7/8) agonist used to treat actinic keratosis and basal cell carcinoma. It is known that topical application of IMQ cream to the skin of mice recruits immune cells and activates macrophages, monocytes, and dendritic cells to secrete inflammatory cytokines. The IMQ-induced psoriasis mouse model is known to be very similar to human psoriasis in terms of skin erythema, keratinization, epidermal changes (acanthosis), and inflammatory infiltration consisting of T cells, neutrophils, and dendritic cells.
# Male BALB/C mice weighing 20-22 g were supplied by Saeron Bio Co., Ltd. (Korea) and acclimatized for 7 days. The animals were housed in separate cages with free access to laboratory feed and water. During the experiment, the animals were maintained at 23±3°C and 50±10% relative humidity with a 12-hour light-dark cycle. The animals were treated according to a protocol approved by the Animal Ethics Committee of GNT Pharmaceuticals. The mice were randomly divided into three groups: a normal group (n=5), a control psoriasis group (Vehicle group, n=8), and an IMQ+Compound 2 group (compound 2 treatment group, n=9). All IMQ treatment groups were administered 5% imiquimod cream (Aldara Cream, Dong-A Pharmaceutical Co., Ltd.) topically to shaved backs at a dose of 62.5 mg per day for 6 days. Compound 2 (5 mg/kg, twice daily) was orally administered to the IMQ+Compound 2 group for 6 days, followed by IMQ treatment.
# To evaluate the anti-psoriatic effects of compound 2, the severity of psoriasis was monitored using an IMQ-induced psoriasis mouse model. The Psoriasis Skin PASI score is used to assess the severity of skin lesions in mice.
# After confirming the therapeutic effect of compound 2 on psoriasis-like symptoms in mice, histological analysis was performed to identify histological changes occurring in psoriatic skin and methods of improvement.
# Mice were anesthetized with pentobarbital at the end of the experiment. Blood was collected by cardiac blood sampling. Within 30 minutes of collection, serum was separated from whole blood using EDTA by centrifugation at 12,000 g for 10 minutes. The weight of the extracted spleen was measured.
# [3] = test system: mouse model of amyotrophic lateral sclerosis; settings: previous studies, ALS mouse model; cited from earlier work
# [4] = molecular target: T1, microsomal prostaglandin E synthase-1 (mPGES-1) (Homo sapiens, UniProt O14684); settings: previous studies; cited from earlier work
# T1 sequence (O14684 1-152): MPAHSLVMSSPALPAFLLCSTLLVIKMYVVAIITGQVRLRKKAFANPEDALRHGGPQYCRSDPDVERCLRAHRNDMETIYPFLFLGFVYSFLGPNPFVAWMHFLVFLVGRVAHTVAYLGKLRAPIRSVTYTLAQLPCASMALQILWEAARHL
# [5] = SLE mice, 4 weeks, compound 2 5 mg/kg twice daily oral, NAC 150 mg/kg once daily i.p., versus control SLE group
# [6] = spleen RNA, qPCR, versus control EAE group, Fig. 6
# [7] = Masson's trichrome staining, Fig. 10
smiles,measurement,setting,value
"CC(=O)N[C@@H](CS)C(=O)O [NAC, N-acetylcysteine, reference compound]",spleen index (organ weight/body weight x 100%),[1]; [5],no significant difference
same,follicle diameter,[1]; SLE mice,did not show a beneficial effect
same,number of splenic follicles,[1]; SLE mice,did not show a beneficial effect
same,anti-dsDNA titers,[1],no effect
"O=C(O)c1cc(NCCc2ccc(C(F)(F)F)cc2)ccc1O [compound 2, 2-hydroxy-5-[2-(4-trifluoromethyl-phenyl)-ethylamino]-benzoic acid]",onset date,"EAE mouse model; EAE mice, compared with control EAE group",similar
same,Clinical signs,"EAE mouse model; EAE mice, compound 2 3.3 mg/kg i.p. every 24 hours for 7 days from day 9, scale 0 to 5, Fig. 4",effectively alleviated
same,CD206 expression,EAE mouse model; [6],significantly increased
same,expression of IFN-γ,EAE mouse model; [6],lower
same,expression of TNF-α,EAE mouse model; [6],lower
same,iNOS expression,EAE mouse model; [6],significantly lower
same,number of Treg cells (CD4+CD25+Foxp3+),"EAE mouse model; splenocytes, flow cytometry, versus control EAE group, Fig. 7",significantly higher
same,spleen size,"[1]; SLE mice, 4 weeks, compound 2 5 mg/kg twice daily oral, NAC 150 mg/kg once daily i.p., versus control SLE group, Fig. 1a",smaller than that of the control SLE group
same,spleen index (organ weight/body weight x 100%),[1]; [5],significantly lower than that of the control SLE group
same,follicle diameter,[1]; SLE mice,significantly decreased
same,number of splenic follicles,[1]; SLE mice,significantly increased
same,anti-dsDNA titers,[1],significantly reduced
same,epidermal thickening (acanthosis) and elongation of the rate ridges,"[2]; H&E histopathology of skin lesions, versus IMQ alone, Fig. 9a",significant inhibition
same,epidermal thickness,"[2]; H&E-stained dorsal skin, Fig. 9b",significantly reduced
same,spleen index,"[2]; IMQ-induced psoriasis mice, versus control psoriasis group, Fig. 11b",decreased
same,spleen size and weight,"[2]; IMQ-induced psoriasis mice, Fig. 11a",decreased
same,collagen pattern in the dermis,[2]; [7],much more compressed collagen pattern
same,psoriasis-like inflammation,[2]; [7],potently inhibited
same,PASI scores,"[2]; psoriasis mice, compound 2 5 mg/kg twice daily oral for 6 days, versus control psoriasis group, Figs. 8b-8e",significantly lower score than the control psoriasis group
same,"neuronal death, motor function and lifespan",[3],"block neuronal death, lateral sclerosis, and autophagocytosis formation, as well as activate motor function and increase lifespan"
same,mPGES-1 inhibition,[4],inhibitor at nanomolar concentrations
